Our source for the IC50 and inhibition values is US6333338A, “Bispiperidines as antithrombotic agents” (Laboratoire L. Lafon, priority 1998, dated 2001).

Counter-ions that a name gives are not always drawn. Like-named read-outs stand apart in the source and are kept apart here.

The test system of assay [1] is guinea pig platelets. Kind of assay: In vitro inhibition of collagen-induced platelet aggregation, guinea pig platelets (PRP). Type of assay: cell-based, guinea pig (male Dunkin-Hartley). The note with it: Cavia porcellus, Platelet, 0.05 h, collagen 1 μg/ml, 3 minutes of contact at 37° C. The protocol: (§1) A study of the inhibitory activity of the compounds of formula I on platelet aggregation was carried out in vitro, i.e. by direct contact of solutions of variable concentrations of the compounds with platelets freshly separated from a sample of total blood, taken under standardized conditions, from laboratory animals (guinea pigs) and from healthy human subjects who have not received any substances or drugs that might interfere with blood clotting. The anti-platelet-aggregating activity was also studied ex vivo/vitro, i.e. after administration of the substances claimed to guinea pigs to measure the intensity and duration of the anti-aggregating action induced by the fraction of the test product absorbed and circulating in the blood.
Blood is taken by intracardiac puncture from male Dunkin-Hartley guinea pigs (weighing about 330 g), at a rate of 4.5 ml per 0.5 ml of trisodium citrate (concentration of the aqueous solution: 1.55%) in order to prevent all trace of clotting. The platelet-rich plasma (PRP) is obtained by centrifuging the tubes of total blood for 15 minutes at 150 g.
The PRPs are collected as "pools". The platelets contained in these pools are counted using a Coulter ZM haematology automatic device: if necessary, a dilution is carried out in order for the platelet concentration in the plasma to be between 200,000 and 400,000 platelets/mm^3. Simultaneously, other samples of these pools serve to prepare the platelet-poor plasma (PPP) by centrifugation at 1500 g for 15 minutes.
The kinetic study of the platelet aggregation is carried out by adding a collagen solution (1 μg/ml) to a volume of PRP, using a Chrono-log Corporation aggregometer (490-D1 or 560 VS) which uses an optical detection of the appearance of the thrombus.
The measurements of the aggregation inhibition are carried out after 3 minutes of contact at 37° C. with agitation.

The subject of assay [2] is guinea pig platelets. Kind of assay: Ex vivo/vitro inhibition of platelet aggregation after administration via the gastric route in guinea pigs. On the set-up: species or system guinea pig (Dunkin-Hartley). The note with it: Cavia porcellus, Platelet, fasted guinea pigs. The protocol: as §1, with “blood. Evaluation of the anti-platelet-aggregating activity of the compounds is carried out in the same guinea pigs as those mentioned above (Dunkin-Hartley strain). […] The allocation of the treatments to the animals is random. The blood is taken and then treated under the same conditions as those described above for the in vitro studies. The results of the inhibition of the platelet aggregation obtained for each test concentration make it possible to calculate the IC50 concentration of each test product and the kinetics of the inhibitory effect and its duration of action.” for “blood.”

The mark [3] stands for this setting: 1 h before blood sampling, read-out: % of g.r. inhibition guinea pig ex vivo, d = 10 mg/kg, 1 h.
The mark [4] stands for this setting: 2 h before blood sampling, read-out: % of g.r. inhibition guinea pig ex vivo, d = 10 mg/kg, 2 h.

As usually defined, the IC50 is the point on the concentration scale where inhibition reaches its midpoint. In the case of `Cc1noc(C)c1S(=O)(=O)NC(CNC(=O)CNC(=O)C(CCC1CCNCC1)CCC1CCNCC1)C(=O)O` (stereo not drawn) [Example 48, 2-{[(3,5-Dimethyl-4-isoxazolyl)sulphonyl]amino}-3-{[2-({4-(4-piperidyl)-2-[2-(4-piperidyl)ethyl]butanoyl}amino)acetyl]amino}propanoic Acid Dihydrochloride], in the assay on guinea pig platelets [1], the midpoint of inhibition, the IC50, lay at 0.42 µM. Moreover, the results for the inhibition at 10 mg/kg in the assay with guinea pig platelets [2] (setting [3]) and with guinea pig platelets [2] (setting [4]) were -61% and -15%, respectively.

For the compound `O=C(CNC(=O)C(CCC1CCNCC1)CCC1CCNCC1)NCC(NS(=O)(=O)c1ccc(C2CCCCC2)cc1)C(=O)O` (stereo not drawn) [Example 61, 2-{[(4-Cyclohexylphenyl)sulphonyl]amino)-3-{[2-({4-(4-piperidyl)-2-[2-(4-piperidyl)ethyl]butanoyl}amino)acetyl]amino}propanoic Acid Dihydrochloride], the IC50 with guinea pig platelets [1] is 1.4 µM. Further, the inhibition at 10 mg/kg in the assay on guinea pig platelets [2] (setting [3]) was -21%; in the assay on guinea pig platelets [2] (setting [4]), -9%.

As to `O=C(CNC(=O)C(CCC1CCNCC1)CCC1CCNCC1)NCC(NS(=O)(=O)Cc1ccc2ccccc2c1)C(=O)O` (stereo not drawn) [Example 69, 2-{[(2-Naphthylmethyl)sulphonyl]amino}-3-{[2-({4-(4-piperidyl)-2-[2-(4-piperidyl)ethyl]butanoyl}amino)acetyl]amino}propanoic Acid Dihydrochloride], in the assay with guinea pig platelets [1], the IC50 is 1.9 µM. The inhibition at 10 mg/kg in the assay on guinea pig platelets [2] (setting [3]) is -69%; in the assay on guinea pig platelets [2] (setting [4]), -3%.

Turning to `O=C(CNC(=O)C(CCC1CCNCC1)CCC1CCNCC1)NCC(NS(=O)(=O)/C=C/c1ccccc1)C(=O)O` (stereo not drawn) [Example 42, 2-({[(E)-2-Phenylethenyl]sulphonyl}amino)-3-{[2-({4-(4-piperidyl)-2-[2-(4-piperidyl)ethyl]butanoyl}amino)acetyl]amino}propanoic Acid Dihydrochloride], in the assay on guinea pig platelets [1], the IC50 stood at 0.42 µM. Also, the inhibition at 10 mg/kg was -14% in the assay on guinea pig platelets [2] (setting [3]) and -26% with guinea pig platelets [2] (setting [4]).

In the case of `O=C(CNC(=O)C(CCC1CCNCC1)CCC1CCNCC1)NC[C@H](NS(=O)(=O)c1ccc2c(c1)OCO2)C(=O)O` [Example 57, 2-[(1,3-Benzodioxol-5-ylsulphonyl)amino]-3-{[2-({4-(4-piperidyl)-2-[2-(4-piperidyl)ethyl]butanoyl}amino)acetyl]amino}propanoic Acid Dihydrochloride], the IC50 with guinea pig platelets [1] was 0.83 µM. The inhibition at 10 mg/kg was -38% in the assay on guinea pig platelets [2] (setting [3]) and -24% in the assay on guinea pig platelets [2] (setting [4]).

With `O=C(CNC(=O)C(CCC1CCNCC1)CCC1CCNCC1)NCC(NS(=O)(=O)c1ccc2c(c1)OCCO2)C(=O)O` (stereo not drawn) [Example 58, 2-[(2,3-Dihydro-1,4-benzodioxin-6-ylsulphonyl)amino]-3-{[2-({4-(4-piperidyl)-2-[2-(4-piperidyl)ethyl]butanoyl}amino)acetyl]amino}propanoic Acid Dihydrochloride], in the assay on guinea pig platelets [1], the IC50 stood at 0.59 µM. Also, the inhibition at 10 mg/kg was -36% in the assay on guinea pig platelets [2] (setting [3]) and -21% in the assay on guinea pig platelets [2] (setting [4]).

As to `CS(=O)(=O)c1ccc(S(=O)(=O)NC(CNC(=O)CNC(=O)C(CCC2CCNCC2)CCC2CCNCC2)C(=O)O)cc1` (stereo not drawn) [Example 32, 2-({[4-(Methylsulphonyl)phenyl]sulphonyl}amino)-3-{[2-({4-(4-piperidyl)-2-[2-(4-piperidyl)ethyl]butanoyl}amino)acetyl]amino}propanoic Acid Dihydrochloride], the IC50 in the assay on guinea pig platelets [1] is 12 µM. The inhibition at 10 mg/kg with guinea pig platelets [2] (setting [3]) and in the assay with guinea pig platelets [2] (setting [4]) was -8% each time.

For the compound `O=C(CNC(=O)C(CCC1CCNCC1)CCC1CCNCC1)NCC(NS(=O)(=O)c1cccc(C(F)(F)F)c1)C(=O)O` (stereo not drawn) [Example 44, 2-({[3-(Trifluoromethyl)phenyl]sulphonyl}amino)-3-{[2-({4-(4-piperidyl)-2-[2-(4-piperidyl)ethyl]butanoyl}amino)acetyl]amino}propanoic Acid Dihydrochloride], half-maximal inhibition in the assay with guinea pig platelets [1] (IC50) was put at 0.51 µM. Also, the inhibition at 10 mg/kg in the assay on guinea pig platelets [2] (setting [3]) was -22%; in the assay with guinea pig platelets [2] (setting [4]), -35%.

As to `Cc1n[nH]c(C)c1S(=O)(=O)NC(CNC(=O)CNC(=O)C(CCC1CCNCC1)CCC1CCNCC1)C(=O)O` (stereo not drawn) [Example 55, 2-{[3,5-Dimethyl-1H-pyrazol-4-yl)sulphonyl]amino}-3-{[2-({4-(4-piperidyl)-2-[2-(4-piperidyl)ethyl]butanoyl}amino)acetyl]amino}propanoic Acid Dihydrochloride], in the assay on guinea pig platelets [1], the IC50 turned out to be 3.5 µM. Further, the inhibition at 10 mg/kg with guinea pig platelets [2] (setting [3]) is -21%; in the assay with guinea pig platelets [2] (setting [4]) it was -17%.

`Cc1cccc(S(=O)(=O)NC(CNC(=O)CNC(=O)C(CCC2CCNCC2)CCC2CCNCC2)C(=O)O)c1` (stereo not drawn) [Example 40, 2-{[(3-Methylphenyl)sulphonyl]amino}-3-{[2-({4-(4-piperidyl)-2-[2-(4-piperidyl)ethyl]butanoyl}amino)acetyl]amino}propanoic Acid Dihydrochloride] yielded an IC50 in the assay on guinea pig platelets [1] of 0.4 µM. Also, the inhibition at 10 mg/kg was -32% in the assay on guinea pig platelets [2] (setting [3]) and -10% in the assay on guinea pig platelets [2] (setting [4]).

In the assay with guinea pig platelets [1], `O=C(CNC(=O)C(CCC1CCNCC1)CCC1CCNCC1)NCC(NC(=O)c1ccc2c(c1)OCO2)C(=O)O` (stereo not drawn) [Example 25, 2-[(1,3-Benzodioxol-5-ylcarbonyl)amino]-3-{[2-({4-(4-piperidyl)-2-[2-(4-piperidyl)ethyl]butanoyl}amino)acetyl]amino}propanoic Acid Dihydrochloride] came in with an IC50 of 29 µM. In addition, the inhibition at 150 mg/kg was -33% in the assay with guinea pig platelets [2] (1 h before blood sampling, read-out: % of g.r. inhibition guinea pig ex vivo, d = 150 mg/kg, 1 h) and -48% with guinea pig platelets [2] (2 h before blood sampling, read-out: % of g.r. inhibition guinea pig ex vivo, d = 150 mg/kg, 2 h).

As for `O=C(CNC(=O)C(CCC1CCNCC1)CCC1CCNCC1)NC[C@H](NS(=O)(=O)CCCCl)C(=O)O` [Example 51, 2-{[(3-Chloropropyl)sulphonyl]amino}-3-{[2-({4-(4-piperidyl)-2-[2-(4-piperidyl)ethyl]butanoyl}amino)acetyl]amino}propanoic Acid Dihydrochloride], inhibition with guinea pig platelets [1] was half-maximal at 11 µM (IC50). The inhibition at 10 mg/kg in the assay with guinea pig platelets [2] (setting [3]) was 4%; in the assay on guinea pig platelets [2] (setting [4]), -21%.

In turn, `O=C(CNC(=O)C(CCC1CCNCC1)CCC1CCNCC1)NC[C@H](NS(=O)(=O)c1ccc(-c2cccs2)cc1)C(=O)O` [Example 65, 2-({[4-(2-Thienyl)phenyl]sulphonyl}amino) 3-{[2-({4-(4-piperidyl)-2-[2-(4-piperidyl)ethyl]butanoyl}amino)acetyl]amino}propanoic Acid Dihydrochloride] displayed an IC50 in the assay with guinea pig platelets [1] of 0.2 µM. The inhibition at 10 mg/kg was -65% in the assay on guinea pig platelets [2] (setting [3]) and -12% in the assay with guinea pig platelets [2] (setting [4]).

Compound `O=C(CNC(=O)C(CCC1CCNCC1)CCC1CCNCC1)NCC(NS(=O)(=O)c1ccc2c(c1)CCC2)C(=O)O` (stereo not drawn) [Example 70, 2-[(2,3-Dihydro-1H-inden-5-ylsulphonyl)amino]-3-{[2-({4-(4-piperidyl)-2-[2-(4-piperidyl)ethyl]butanoyl}amino)acetyl]amino}propanoic Acid Dihydrochloride] yielded an IC50 in the assay with guinea pig platelets [1] of 0.4 µM. The inhibition at 10 mg/kg in the assay with guinea pig platelets [2] (setting [3]) was -32%; in the assay on guinea pig platelets [2] (setting [4]), -34%.

In turn, `O=C(CNC(=O)C(CCC1CCNCC1)CCC1CCNCC1)NCC(NS(=O)(=O)Cc1ccccc1)C(=O)O` (stereo not drawn) [Example 41, 2-[(Benzylsulphonyl)amino]-3-{[2-({4-(4-piperidyl)-2-[2-(4-piperidyl)ethyl]butanoyl}amino)acetyl]amino}propanoic Acid Dihydrochloride] yielded an IC50 with guinea pig platelets [1] of 8.6 µM. Further, the inhibition at 10 mg/kg in the assay on guinea pig platelets [2] (setting [3]) amounted to 13%; with guinea pig platelets [2] (setting [4]), 1%.

On to `CC(=O)Nc1nc(C)c(S(=O)(=O)NC(CNC(=O)CNC(=O)C(CCC2CCNCC2)CCC2CCNCC2)C(=O)O)s1` (stereo not drawn) [Example 50, 2-({[2-(Acetylamino)-4-methyl-1,3-thiazol-5-yl]sulphonyl}amino)-3-{[2-({4-(4-piperidyl)-2-[2-(4-piperidyl)ethyl]butanoyl}amino)acetyl]amino}propanoic Acid Dihydrochloride], for which it took 3.3 µM to reach half-maximal inhibition with guinea pig platelets [1] (IC50). For the same compound, the inhibition at 10 mg/kg in the assay with guinea pig platelets [2] (setting [3]) is -22%; in the assay with guinea pig platelets [2] (setting [4]), -39%.
